Reference: patent US20230181482A1, “LIPIDS FOR DELIVERY OF NUCLEIC ACID SEGMENTS” (AstraZeneca AB, priority 2021, published 2023)

Tests used:
[1] = mRNA encapsulation efficiency of LNP formulations (Quant-it Ribogreen assay with Triton-X100); format: physicochemical; settings: N/P ratio 3:1, DMPE-PEG2000
Description: (§1) A solution of eGFP mRNA (purchased from TriLink Biotechnologies) in citrate buffer was prepared by mixing mRNA dissolved in MilliQ-water, 100 mM citrate buffer (pH 3) and MilliQ-water to give a solution of 50 mM citrate. Lipid solution in ethanol (99.5%) was prepared with four different lipid components: ionizable lipid (see Table 1); cholesterol (Sigma-Aldrich); DSPC (distearoyl phosphatidyl choline, Avanti Polar Lipids Inc); and a polymer-conjugated lipid (see Table 1). The ratio of lipids in all experiments was ionizable lipid/cholesterol/DSPC/polymer-conjugated lipid (50/38.5/10/1.5 mol %). The total concentration of lipids in all experiments was 12.5 mM.
(§2) The mRNA and lipid solutions were mixed in a NanoAssemblr (Precision Nanosystems, Vancouver, BC, Canada) microfluidic mixing system at a mixing ratio of Aq:EtOH=3:1 and a constant flow rate of 12 mL/min. The mRNA in citrate buffer solution was prepared such that, at the time of mixing the ratio between the nitrogen atoms on the ionizable lipid and phosphorus atoms (N/P ratio) on the mRNA chain was either 3:1 or 6:1 (see Table 1).
The final mRNA concentration and encapsulation efficiency percentage (% EE) was measured by Quant-it Ribogreen Assay Kit (ThermoFischer Scientific Inc.) using Triton-X100 to disrupt the LNPs. The mRNA encapsulation efficiency was determined according to the following equation: […]

[2] = LNP particle size by dynamic light scattering (Zetasizer Nano ZS); format: physicochemical; settings: N/P ratio 3:1, DMPE-PEG2000
Description: as §1, §2
The first 0.2-0.35 mL and the last 0.05-0.1 mL of the LNP suspension prepared were discarded while the rest of the volume was collected as the sample fraction. The size of the mRNA lipid nanoparticles was determined by dynamic light scattering measurements using a Zetasizer Nano ZS from Malvern Instruments Ltd, giving directly the z-average particle diameter. The number-weighted particle size distributions and averages were calculated using a particle refractive index of 1.45.

Female BALB/c mice = test: eGFP expression in the liver at 24 hours after intravenous administration of LNP formulations to mouse (ELISA); format: in vivo; settings: LNP N/P 3:1, DMPE-PEG2000
Source text: Female BALB/c mice were purchased (SPF (Beijing) Laboratory Animal Technology Co. Ltd.) and on arrival were caged in groups of 4 on corncob bedding, with normal diet and were provided tap drinking water ad libitum that was purified and autoclaved before being offered to the animal. The environment was maintained at a target temperature of […] and relative humidity of 40-80%, with a 12-hour light/dark cycle. Animals were acclimatised to the housing conditions for at least 7 days prior to any experimental procedures and were approximately 6-8 weeks of age at the start of dosing
Animals were assigned to respective groups such that the mean body weights for each treatment groups will be equal. N=4 for each treatment group.
Formulations 1, 3, 4, 5, and 6 from Example 58 were each dosed intravenously: Each mouse was removed from its cage and restrained, and then dosed with a slow IV bolus of a formulation in the lateral tail vein at a dose […] of 0.3 mg/kg.
All animals were sacrificed 24 hours after dosing and flowing blood sampling the liver for the animals dosed by the IV route and the liver and muscle at the dose site for the IM dosed animals were harvested for eGFP analysis by ELISA.
Additional LNP formulations were prepared according to the procedures described in Example 46. These formulations were tested using the same protocol as described herein. The results of eGFP expression in the liver at 24 hours after intravenous administration of the formulations were summarized in Tables 3, 4, 5 and 6 below.

SMILES	% EE ([1]; Table 5)	<d>N (nm) ([2]; Table 5)	<d>Z (nm) ([2]; Table 5)	Liver eGFP protein (ng/g tissue) (Female BALB/c mice; Table 5, 0.3 mg/kg)	% EE ([1]; Table 6)	<d>N (nm) ([2]; Table 6)	<d>Z (nm) ([2]; Table 6)	Liver eGFP protein (ng/g tissue) (Female BALB/c mice; Table 6, 0.3 mg/kg)	also measured
CCCCCCCCC(CC)OC(=O)CCCCCCCC(CCCCCCCC(=O)OC(CCCCCCCC)CCCCCCCC)NCC1CCOCC1 (centres unmarked) [Compound 39, 1-(heptadecan-9-yl) 17-(undecan-3-yl) 9-(((tetrahydro-2H-pyran-4-yl)methyl)amino)heptadecanedioate]	97%	55 nm	69 nm	3383.8 ng/g tissue					
CCCCCCCCC(CC)OC(=O)CCCCCCCC(CCCCCCCC(=O)OC(CCCCCCCC)CCCCCCCC)NCC1CCOC1 (centres unmarked) [Compound 40, 1-(heptadecan-9-yl) 17-(undecan-3-yl) 9-(((tetrahydrofuran-3-yl)methyl)amino)heptadecanedioate]	97%	53 nm	70 nm	3658.4 ng/g tissue					
CCCCCCCCC(CC)OC(=O)CCCCCCCC(CCCCCCCC(=O)OC(CCCCCCCC)CCCCCCCC)NCC1COC1 (centres unmarked) [Compound 41, 1-(heptadecan-9-yl) 17-(undecan-3-yl) 9-((oxetan-3-ylmethyl)amino)heptadecanedioate]	98%	54 nm	69 nm	7390.2 ng/g tissue					
CCCCCCCCC(CCCCCCCC)OC(=O)CCCCCCCC(CCCCCCCC(=O)OCCC(C)CCCCCC)NC1CC2(COC2)C1 (centres unmarked) [Compound 42, 1-(heptadecan-9-yl) 17-(3-methylnonyl) 9-((2-oxaspiro[3.3]heptan-6-yl)amino)heptadecanedioate]	94%	66 nm	84 nm	1868.2 ng/g tissue					
CCCCCCCCC(CCCCCCCC)OC(=O)CCCCCCCC(CCCCCCCC(=O)OCCC(C)CCCCCC)NCC1CCOCC1 (centres unmarked) [Compound 43, 1-(heptadecan-9-yl) 17-(3-methylnonyl) 9-(((tetrahydro-2H-pyran-4-yl)methyl)amino)heptadecanedioate]	95%	62 nm	79 nm	2590.9 ng/g tissue					
CCCCCCCCC(CCCCCCCC)OC(=O)CCCCCCCC(CCCCCCCC(=O)OCCC(CC)CCCCCC)NC1CC2(COC2)C1 (centres unmarked) [Compound 44, 1-(3-ethylnonyl) 17-(heptadecan-9-yl) 9-((2-oxaspiro[3.3]heptan-6-yl)amino)heptadecanedioate]	97%	65 nm	80 nm	6582.0 ng/g tissue					
CCCCCC(CCCCC)CCOC(=O)CCCCCC(CCCCCC(=O)OCCC(CCCCC)CCCCC)NC1CCOCC1 [Compound 45, bis(3-pentyloctyl) 7-((tetrahydro-2H-pyran-4-yl)amino)tridecanedioate]									% EE ([1]; Table 4): 88%; <d>N (nm) ([2]; Table 4): 60 nm; <d>Z (nm) ([2]; Table 4): 75 nm; Liver eGFP protein (ng/g tissue) (Female BALB/c mice; Table 4, 0.3 mg/kg): 9082.2 ng/g tissue
CCCCCCCCC(CCCCCCCC)OC(=O)CCCCCCCC(CCCCCCCC(=O)OC(CC)CCCCC)NC1CC2(COC2)C1 (centres unmarked) [Compound 46, 1-(heptadecan-9-yl) 17-(octan-3-yl) 9-((2-oxaspiro[3.3]heptan-6-yl)amino)heptadecanedioate]					93%	54 nm	73 nm	15932.1 ng/g tissue	
CCCCCCCCC(CCCCCCCC)OC(=O)CCCCCCCC(CCCCCCCC(=O)OC(CC)CCCC)NCC1CCOC1 (centres unmarked) [Compound 47, 1-(heptadecan-9-yl) 17-(heptan-3-yl) 9-(((tetrahydrofuran-3-yl)methyl)amino)heptadecanedioate]					89%	62 nm	82 nm	13883.6 ng/g tissue	
CCCCCCCCC(CCCCCCCC)OC(=O)CCCCCCCC(CCCCCCCC(=O)OC(C)CCCCC)NCC1CCOC1 (centres unmarked) [Compound 48, 1-(heptadecan-9-yl) 17-(heptan-2-yl) 9-(((tetrahydrofuran-3-yl)methyl)amino)heptadecanedioate]					90%	60 nm	80 nm	14749.9 ng/g tissue	
CCCCCC(CCCCC)CCOC(=O)CCCCCCCCCC(CCCCC(=O)OCCC(CCCCC)CCCCC)NC1CC2(COC2)C1 (centres unmarked) [Compound 49, bis(3-pentyloctyl) 6-((2-oxaspiro[3.3]heptan-6-yl)amino)hexadecanedioate]					94%	55 nm	72 nm	3934.6 ng/g tissue	
CCCCCCCCC(CCC)OC(=O)CCCCCCCC(CCCCCCCC(=O)OC(CCCCCCCC)CCCCCCCC)NC1CC2(COC2)C1 (centres unmarked) [Compound 50, 1-(dodecan-4-yl) 17-(heptadecan-9-yl) 9-((2-oxaspiro[3.3]heptan-6-yl)amino)heptadecanedioate]					97%	51 nm	65 nm	7410.4 ng/g tissue	
CCCCCCCCC(CCCCCCCC)OC(=O)CCCCCCCC(CCCCCCCC(=O)OCC1CC1CCCCCC)NCC1COC1 (centres unmarked) [Compound 51, 1-(heptadecan-9-yl) 17-((2-hexylcyclopropyl)methyl) 9-((oxetan-3-ylmethyl)amino)heptadecanedioate]					95%	53 nm	67 nm	3473.8 ng/g tissue	
CCCCCCCCC(CCCCCCCC)OC(=O)CCCCCCCC(CCCCCCCC(=O)OCC1CC1CCCCCC)NCC1CCOC1 (centres unmarked) [Compound 52, 1-(heptadecan-9-yl) 17-((2-hexylcyclopropyl)methyl) 9-(((tetrahydrofuran-3-yl)methyl)amino)heptadecanedioate]					95%	55 nm	71 nm	4701.7 ng/g tissue	
CCCCCCCCC(CCCCCCCC)OC(=O)CCCCCCCC(CCCCCCCC(=O)OC(C)(C)CCCCCCCC)NC1CC2(COC2)C1 (centres unmarked) [Compound 53, 1-(heptadecan-9-yl) 17-(2-methyldecan-2-yl) 9-((2-oxaspiro[3.3]heptan-6-yl)amino)heptadecanedioate]					96%	50 nm	65 nm	6947.2 ng/g tissue	
CCCCCCCCCC(=O)OCCCCCCCC(CCCCCCCC(=O)OC(CCCCCCCC)CCCCCCCC)NC1CC2(COC2)C1 (centres unmarked) [Compound 54, Heptadecan-9-yl 9-((2-oxaspiro[3.3]heptan-6-yl)amino)-16-(decanoyloxy)hexadecanoate]					95%	62 nm	81 nm	10704.5 ng/g tissue	
CCCCCCCCC(CCCCCCCC)OC(=O)CCCCCCCC(CCCCCCCCCC(=O)OC(C)CCCCCC)NC1CC2(COC2)C1 (centres unmarked) [Compound 55, 1-(heptadecan-9-yl) 19-(octan-2-yl) 9-((2-oxaspiro[3.3]heptan-6-yl)amino)nonadecanedioate]					93%	62 nm	77 nm	18695.5 ng/g tissue	
